According to patent publication US20210038668A1, “TRADITIONAL CHINESE MEDICINE COMPOSITION FOR PREVENTING AND/OR TREATING ISCHEMIC REPERFUSION INJURY” (TASLY PHARMACEUTICAL GROUP CO., LTD., priority 2018, published 2021):

Tests used:
Type in all cases: in vivo, C57BL/6 mice
[1] = test system: cerebral cortex microvessels; experiment: Opening number of cerebral cortex microvessels by SEM; conditions: 24 h after administration; tPA 10 mg/kg alone; T541 20 mg/kg + tPA 10 mg/kg
Protocol: Scanning electron microscope (SEM): after reperfused for 24 hours, anesthetized mice were perfused 3% glutaraldehyde for 40 minutes via ventriculus sinister at a rate of 3 ml/min; the brain was taken, and the right cortical penumbra was cut off and immobilized in glutaraldehyde for 2 hours. After washed by a PBS phosphate buffer, mice were immobilized in 1% osmium tetroxide for 2 hours; a proper section was taken and fixed on a metal support. Tissue blocks were plated gold, observed and shoot by an SEM (JSM-5600LV, JEOL, Tokyo, Japan).
5 500-fold visual fields were randomly selected for each mouse under SEM to count the opening number of cerebral cortex microvessels in right hemisphere penumbra. N=3. (See lines 3 and 4 of FIG. 7)

[2] = test system: brain surface postcapillary venule; experiment: Plasma albumin leakage of brain surface postcapillary venule; conditions: 24 h after administration; tPA 10 mg/kg alone; T541 20 mg/kg + tPA 10 mg/kg
Protocol: Plasma albumin leakage: femoral venous cannula of mice was conducted under a stereoscopic microscope (PE/08, outer diameter: 0.36 mm and inner diameter: 0.20 mm). Mice were fixed on an observation board for brain microcirculation in prone position; parietal skin of mice was cut off to expose right parietal bone; the whole parietal bone was thinned by grinding by a hand-held cranial drill till there is only one layer of soft bone cortex under the stereoscopic microscope. FITC-labelled plasma albumin (excitation wavelength: 420-490 nm, emission wavelength: 520 nm) was slowly injected via femoral vein. 10 minutes later, fluorescence images of postcapillary venule, artery in the dominant region of middle cerebral artery and artery in the dominant region of anterior cerebral artery among […] (diameter) on the surface of the mice brain after reperfused for 24 hours by an upright fluorescent microscope linked to hypersensitive fluorescent CCD; then leakage of plasma albumin was analyzed. Fluorescence intensity inside (Iv) and outside (Ii) venule was calculated by an image analysis software ImageJ (Bethesda, Md., USA); the leakage of plasma albumin is denoted by Ii/Iv.

[3] = test system: cerebral infarction; experiment: TTC infarct size, mice after thrombolysis; conditions: 24 h after administration, tPA 10 mg/kg alone, T541 20 mg/kg + tPA 10 mg/kg
Protocol: After reperfused for 24 hours, mice were perfused via heart by a PBS buffer precooled at 4° C. and separated brain via craniotomy; the brain was cut from front to back into 5 slices in a brain stereotaxic apparatus; bleeding condition was rapidly shoot in cold condition; then slices were put into 2% triphenyltetrazolium chloride, TTC for incubation for 15 minutes at […]; TTC staining was conducted. Non-infarct region was stained red and infarct region was not stained and still white. Brain TTC staining images were shoot and IamgeJ (Bethesda, Md., USA) was used to calculate a percentage of TTC staining infarct size in the total area of brain, and evaluate the degree of cerebral infarction.

[4] = test system: TUNEL positive cells of cerebral cortex in penumbra; experiment: TUNEL staining of brain tissue; conditions: brain tissue 24 hours after administration; tPA 10 mg/kg alone; T541 20 mg/kg + tPA 10 mg/kg
Protocol: After reperfused for 24 hours, mice were killed to take brain, so as to observe the degree of cerebral hemorrhage and infarct size, measure the hemoglobin content in brain tissues after bleeding, detect dry/wet weight ratio and Evans Blue leakage of brain tissues, reflect the condition of tissue edema, observe the severity order of apoptosis by TUNEL staining brain tissues, observe the change of blood brain barrier of the blood vessel when injured by making Western blotting analysis on connexins Occludin, JAM-1, ZO-1, VE-cadherin and laminin, namely, the component of basement membrane and by conducting immunofluorescent staining on partial connexins and laminin, detect the change of the structure after cerebral ischemia reperfusion by a scanning electron microscope and IEM, and measure the change on the activity of brain tissues MDA, 8-OHdG, ATP/ADP/AMP and mitochondrial complexes I, II and IV by enzyme-linked immunosorbent assay (ELISA).

[5] = test system: blood flow of cerebral cortex; experiment: Cerebral blood flow by Laser Doppler Flowmetry
Protocol: Mice were anesthetized via intraperitoneal injection by pentobarbital sodium (2%, 45 mg/kg), and neck kin was sterilized. A median incision was cut on the neck, exposed and isolated to obtain arteria carotis communis; a waterproof cushion was used to isolate arteria carotis communis with the length of about 2.5-3 mm from surrounding tissues. The isolated arteria carotis communis was wrapped by a filter paper soaked by 10% FeCl3 for about 1 mm (width), and the filter paper was removed 3 minutes later, the outside of blood vessel was washed by 0.9% normal saline. The waterproof cushion was removed. The neck incision was sutured. The start of Fe3+ stimulation was defined as the beginning of ischemia, and those mice meeting the following conditions were selected into the group: the blood vessel was blocked at the maximum diameter of the neck thrombus 10 minutes after ischemia; the blood flow of the carotid artery distal end was less than 20% of the base value 15 minutes after ischemia; and the thrombus was stable 4.5 hours after ischemia (before reperfusion); the carotid artery vessel at 60% and more of the diameter was blocked by the maximum diameter of the thrombus.
Mice were treated by medicaments or normal saline according to random grouping results 4.5 hours after ischemia. Mice femoral vein was intubated, and left femoral vein was injected tPA (tissue plasminogen activator) or normal saline; right femoral vein was injected the traditional Chinese medicinal composition of the present invention or normal saline; 10% of the total dose was injected via an injection pump, and the rest 90% were continuously injected intravenously for 1 hour with the rate of 0.1 ml/h. Three proportion groups were selected to the traditional Chinese medicinal composition of the present invention respectively below:
A computer-linked Laser Doppler Flowmetry was used to measure the blood flow of cerebral cortex in the dominant region of bilateral middle cerebral arteries. Anesthetized mice were placed on a board in supine position; skin on the parietal bone of both sides was cut to fully expose the parietal bone; a computer-linked low-energy He—Ne laser probe was placed away 16-18 cm on the parietal bone to detect the blood flow of pia mater in the blood supply region of bilateral middle cerebral arteries of mice before ischemia (namely, a base value), 10 minutes after ischemia, 4.5 hours after ischemia (namely, before reperfusion), 1 hour after reperfusion, 2 hours after reperfusion and 24 hours after reperfusion. A cerebral blood flow analysis software LDPIwin 3.1 (PeriScan PIM3 System, PERIMED, Stockholm, Sweden) was used to calculate the blood flow of cerebral cortex in the same region dominated by bilateral MCA.

[6] = before administration, groups: tPA 10 mg/kg alone, T541 20 mg/kg, T141 12 mg/kg, T582 15 mg/kg each + tPA 10 mg/kg
[7] = iv, tPA 10 mg/kg alone, T541 20 mg/kg, T141 12 mg/kg, T582 15 mg/kg each + tPA 10 mg/kg

“tPA: tissue-type plasminogen activator (tPA) for thrombolysis” was tested, and the “Opening number of microvessels” value [1] was 21.07 ± 1.54, the “Albumin exudation ratio of venule %” value [2] was 125.10 ± 3.53 % and the Infarct size [3] was 15.68 ± 4.81. For the same substance, the “TUNEL positive cell counting” value [4] was 27.14 ± 1.77, the “Cerebral blood flow, 10 minutes after FeCl3 simulation” value [5, 6] was 55.20 ± 5.69 and the “Cerebral blood flow, Before FeCl3 simulation” value [5, 6] was 100.25 ± 1.19. For the same substance, the “recovery of brain blood flow (in words)” value ([5]; high-dose T541 or tPA simply given, T141, T582 with tPA) was “no obvious recovery of the brain blood flow”, the “Cerebral blood flow, 5.5 hours after FeCl3 simulation (1 hour after administration)” value [5, 7] was 47.56 ± 6.13 and the “Cerebral blood flow, 6.5 hours after FeCl3 simulation (2 hours after administration)” value [5, 7] was 41.46 ± 4.49. For the same substance, the “Cerebral blood flow, 28.5 hours after FeCl3 simulation (24 hours after administration)” value [5, 7] was 42.40 ± 4.61 and the “Cerebral blood flow, 4.5 hours after FeCl3 simulation” value ([5]; start of administration, groups: tPA 10 mg/kg alone, T541 20 mg/kg, T141 12 mg/kg, T582 15 mg/kg each + tPA 10 mg/kg) was 49.58 ± 7.44.
